Source: ChEMBL document CHEMBL3124876, “A perylene derivative regulates HIF-1α and Stat3 signaling pathways” (Bioorg Med Chem, 2014)
Calls of active or inactive are those of the source. The rule behind the calls is not given here.

Tests used:
[1] = target: Histone acetyltransferase p300 (Homo sapiens) (UniProt Q09472); test: Inhibition of P300 in human MDA-MB-231 cells at 1 to 20 uM by Western blotting analysis; format: cell-based
[2] = target: Signal transducer and activator of transcription 3 (Homo sapiens) (UniProt P40763); conditions: 10 uM
Chain of Signal transducer and activator of transcription 3 (Homo sapiens) (P40763 whole entry): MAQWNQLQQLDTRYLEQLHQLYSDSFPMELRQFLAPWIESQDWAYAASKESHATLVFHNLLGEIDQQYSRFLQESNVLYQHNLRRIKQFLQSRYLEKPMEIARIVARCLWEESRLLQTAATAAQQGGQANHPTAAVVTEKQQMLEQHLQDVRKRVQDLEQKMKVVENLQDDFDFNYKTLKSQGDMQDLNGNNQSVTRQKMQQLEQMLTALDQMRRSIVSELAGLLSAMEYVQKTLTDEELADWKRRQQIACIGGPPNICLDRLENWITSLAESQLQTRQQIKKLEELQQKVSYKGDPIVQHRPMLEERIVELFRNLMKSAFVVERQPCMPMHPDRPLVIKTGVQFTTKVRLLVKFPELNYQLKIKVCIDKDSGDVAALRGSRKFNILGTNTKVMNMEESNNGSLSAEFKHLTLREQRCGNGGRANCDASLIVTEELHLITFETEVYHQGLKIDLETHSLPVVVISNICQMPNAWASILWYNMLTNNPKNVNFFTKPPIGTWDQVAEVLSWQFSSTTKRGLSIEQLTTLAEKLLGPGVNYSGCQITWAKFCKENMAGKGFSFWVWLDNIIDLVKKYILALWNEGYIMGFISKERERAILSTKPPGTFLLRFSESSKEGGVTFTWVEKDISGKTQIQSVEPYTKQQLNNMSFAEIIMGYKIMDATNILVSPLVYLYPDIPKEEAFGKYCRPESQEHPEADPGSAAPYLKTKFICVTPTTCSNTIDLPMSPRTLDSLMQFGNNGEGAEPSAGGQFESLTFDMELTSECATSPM
Description: Inhibition of STAT3 (unknown origin) assessed as total STAT3 level at 10 uM after 6 hrs by cell-based Western blotting analysis

[3] = target: Signal transducer and activator of transcription 3 (Homo sapiens) (UniProt P40763); conditions: MDA-MB-468, 1 to 20 uM
Description: Inhibition of Stat3 phosphorylation in human MDA-MB-468 cells assessed as inhibition of Bcl2 expression at 1 to 20 uM by Western blotting analysis in hypoxia condition

[4] = target: RAC-alpha serine/threonine-protein kinase (Homo sapiens) (UniProt P31749); test: Inhibition of AKT phosphorylation in human PANC1 cells at 1 to 20 uM by Western blotting analysis; format: cell-based; conditions: PANC-1
Chain of RAC-alpha serine/threonine-protein kinase (Homo sapiens) (P31749 whole entry): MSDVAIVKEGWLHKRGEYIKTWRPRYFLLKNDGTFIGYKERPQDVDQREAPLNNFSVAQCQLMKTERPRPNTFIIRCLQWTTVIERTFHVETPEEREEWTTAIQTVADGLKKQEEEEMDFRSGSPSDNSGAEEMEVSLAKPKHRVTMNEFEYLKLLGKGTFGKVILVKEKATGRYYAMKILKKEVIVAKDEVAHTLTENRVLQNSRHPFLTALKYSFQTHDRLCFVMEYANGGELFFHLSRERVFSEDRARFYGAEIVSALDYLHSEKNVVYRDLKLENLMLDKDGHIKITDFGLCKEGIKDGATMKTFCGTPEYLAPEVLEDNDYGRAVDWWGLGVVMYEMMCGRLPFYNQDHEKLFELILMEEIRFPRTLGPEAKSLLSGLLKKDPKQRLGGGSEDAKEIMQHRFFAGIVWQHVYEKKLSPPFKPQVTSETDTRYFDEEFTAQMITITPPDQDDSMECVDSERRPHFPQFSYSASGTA

[5] = target: Aryl hydrocarbon receptor nuclear translocator (Homo sapiens) (UniProt P27540); test: Inhibition of HIF-1 beta in human MDA-MB-231 cells at 1 to 20 uM by Western blotting analysis; format: cell-based
Chain of Aryl hydrocarbon receptor nuclear translocator (Homo sapiens) (P27540 whole entry): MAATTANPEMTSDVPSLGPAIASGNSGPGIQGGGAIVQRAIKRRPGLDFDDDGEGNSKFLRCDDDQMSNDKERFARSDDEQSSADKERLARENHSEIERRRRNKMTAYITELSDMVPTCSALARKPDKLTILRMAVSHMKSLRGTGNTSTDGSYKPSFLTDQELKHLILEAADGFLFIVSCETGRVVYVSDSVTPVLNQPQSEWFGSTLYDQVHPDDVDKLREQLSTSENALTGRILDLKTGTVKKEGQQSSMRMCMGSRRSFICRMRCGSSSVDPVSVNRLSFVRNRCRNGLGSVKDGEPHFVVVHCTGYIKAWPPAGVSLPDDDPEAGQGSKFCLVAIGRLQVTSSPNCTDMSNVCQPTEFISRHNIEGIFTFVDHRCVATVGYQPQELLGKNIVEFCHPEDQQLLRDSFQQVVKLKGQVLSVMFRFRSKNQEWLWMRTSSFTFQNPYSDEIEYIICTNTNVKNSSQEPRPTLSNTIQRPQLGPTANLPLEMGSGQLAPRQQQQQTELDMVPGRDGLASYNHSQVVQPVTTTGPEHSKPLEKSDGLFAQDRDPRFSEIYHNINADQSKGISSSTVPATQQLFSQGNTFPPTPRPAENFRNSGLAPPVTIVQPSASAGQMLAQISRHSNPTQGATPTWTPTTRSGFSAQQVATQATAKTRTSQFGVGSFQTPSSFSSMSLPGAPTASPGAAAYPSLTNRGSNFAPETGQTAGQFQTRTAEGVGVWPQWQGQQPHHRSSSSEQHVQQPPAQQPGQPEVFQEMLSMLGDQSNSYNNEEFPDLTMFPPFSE

MDA-MB-231 [6] = test: Reduction of total Stat3 level in human MDA-MB-231 cells at 0.05 to 20 uM by Western blotting analysis; format: functional, cell-based
[7] = target: Hypoxia-inducible factor 1-alpha (Homo sapiens) (UniProt Q16665); test: Inhibition of HIF-1 alpha in human PC3 cells after 18 hrs by Western blotting analysis in hypoxia condition; format: cell-based; conditions: PC-3
Chain of Hypoxia-inducible factor 1-alpha (Homo sapiens) (Q16665 whole entry, looked up): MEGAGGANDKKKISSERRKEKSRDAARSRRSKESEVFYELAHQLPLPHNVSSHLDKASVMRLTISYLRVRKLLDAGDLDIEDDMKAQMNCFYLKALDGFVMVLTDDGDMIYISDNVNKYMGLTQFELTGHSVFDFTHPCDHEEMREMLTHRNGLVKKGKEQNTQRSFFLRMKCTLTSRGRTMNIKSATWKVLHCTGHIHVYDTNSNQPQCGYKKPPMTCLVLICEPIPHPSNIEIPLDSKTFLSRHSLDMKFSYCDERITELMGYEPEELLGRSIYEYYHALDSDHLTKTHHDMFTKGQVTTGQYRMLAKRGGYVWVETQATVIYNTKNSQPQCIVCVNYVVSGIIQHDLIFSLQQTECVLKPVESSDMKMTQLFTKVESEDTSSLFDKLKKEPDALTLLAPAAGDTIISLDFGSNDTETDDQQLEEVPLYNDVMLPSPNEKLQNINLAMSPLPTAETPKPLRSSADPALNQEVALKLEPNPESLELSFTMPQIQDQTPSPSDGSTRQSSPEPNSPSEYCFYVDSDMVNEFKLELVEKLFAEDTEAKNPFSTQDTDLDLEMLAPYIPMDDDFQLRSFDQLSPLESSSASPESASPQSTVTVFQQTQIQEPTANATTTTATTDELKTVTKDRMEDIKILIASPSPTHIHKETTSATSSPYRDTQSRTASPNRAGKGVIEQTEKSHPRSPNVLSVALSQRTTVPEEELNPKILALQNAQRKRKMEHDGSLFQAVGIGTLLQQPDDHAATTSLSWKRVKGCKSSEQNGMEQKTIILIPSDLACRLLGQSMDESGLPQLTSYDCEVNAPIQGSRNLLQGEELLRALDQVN

[8] = target: T1, Signal transducer and activator of transcription 5A (Homo sapiens) (UniProt P42229); test: Inhibition of Stat5 phosphorylation in human PANC1 cells at 0.5 to 20 uM by Western blotting analysis; format: cell-based; conditions: PANC-1
T1 sequence (whole entry): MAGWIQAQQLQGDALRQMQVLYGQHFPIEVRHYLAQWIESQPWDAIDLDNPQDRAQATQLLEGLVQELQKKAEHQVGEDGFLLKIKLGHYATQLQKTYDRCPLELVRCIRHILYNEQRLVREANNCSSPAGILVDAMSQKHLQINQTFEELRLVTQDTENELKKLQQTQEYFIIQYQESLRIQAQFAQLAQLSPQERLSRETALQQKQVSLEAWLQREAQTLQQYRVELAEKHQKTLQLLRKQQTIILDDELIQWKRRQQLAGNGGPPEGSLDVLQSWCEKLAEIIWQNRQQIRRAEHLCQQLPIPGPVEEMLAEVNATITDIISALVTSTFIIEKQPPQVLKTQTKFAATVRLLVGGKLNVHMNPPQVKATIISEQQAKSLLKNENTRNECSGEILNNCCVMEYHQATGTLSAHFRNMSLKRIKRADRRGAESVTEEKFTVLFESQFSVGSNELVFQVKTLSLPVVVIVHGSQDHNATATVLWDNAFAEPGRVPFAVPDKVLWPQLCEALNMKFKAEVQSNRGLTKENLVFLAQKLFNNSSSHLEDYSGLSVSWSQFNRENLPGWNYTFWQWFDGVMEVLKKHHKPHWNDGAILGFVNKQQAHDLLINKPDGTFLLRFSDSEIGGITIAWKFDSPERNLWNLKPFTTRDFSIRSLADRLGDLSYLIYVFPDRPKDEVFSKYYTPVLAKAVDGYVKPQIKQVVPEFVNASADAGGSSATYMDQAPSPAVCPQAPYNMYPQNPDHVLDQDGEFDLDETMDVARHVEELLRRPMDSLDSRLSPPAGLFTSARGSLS

[9] = target: Hypoxia-inducible factor 1-alpha (Homo sapiens) (UniProt Q16665); test: Inhibition of HIF-1 alpha in human PANC1 cells after 18 hrs by Western blotting analysis in hypoxia condition in presence of T40214; format: cell-based; conditions: PANC-1
[10] = target: T2, Signal transducer and activator of transcription 1-alpha/beta (Homo sapiens) (UniProt P42224); test: Inhibition of Stat1 phosphorylation in human MDA-MB-231 cells at 0.05 to 10 uM by Western blotting analysis; format: cell-based
T2 sequence (whole entry): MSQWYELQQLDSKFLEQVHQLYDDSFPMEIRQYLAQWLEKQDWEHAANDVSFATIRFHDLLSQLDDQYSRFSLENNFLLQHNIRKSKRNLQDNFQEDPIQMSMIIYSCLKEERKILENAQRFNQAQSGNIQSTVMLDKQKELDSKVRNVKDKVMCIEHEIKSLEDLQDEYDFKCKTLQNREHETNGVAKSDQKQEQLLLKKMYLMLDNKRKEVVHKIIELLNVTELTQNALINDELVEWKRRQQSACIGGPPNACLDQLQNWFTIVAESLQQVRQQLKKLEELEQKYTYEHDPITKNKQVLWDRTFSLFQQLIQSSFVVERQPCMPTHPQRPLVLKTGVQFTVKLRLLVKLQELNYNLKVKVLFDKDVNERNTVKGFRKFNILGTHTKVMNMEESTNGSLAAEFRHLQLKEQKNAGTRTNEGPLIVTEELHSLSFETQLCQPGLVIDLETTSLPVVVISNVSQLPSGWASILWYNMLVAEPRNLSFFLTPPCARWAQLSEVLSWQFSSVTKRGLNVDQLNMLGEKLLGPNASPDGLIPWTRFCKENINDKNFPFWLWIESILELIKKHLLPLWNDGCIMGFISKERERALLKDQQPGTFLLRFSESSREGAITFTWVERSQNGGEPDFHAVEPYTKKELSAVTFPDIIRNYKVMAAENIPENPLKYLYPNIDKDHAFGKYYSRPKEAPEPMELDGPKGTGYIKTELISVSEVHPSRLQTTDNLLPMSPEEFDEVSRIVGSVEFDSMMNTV

MDA-MB-231 [11] = test: Induction of apoptosis in human MDA-MB-231 cells assessed as reduction in cell viability at 8 uM after 12 to 48 hrs by MTT assay; format: functional, cell-based
[12] = target: Hypoxia-inducible factor 1-alpha (Homo sapiens) (UniProt Q16665); test: Inhibition of GST-tagged HIF-1 alpha (531 to 826) (unknown origin) expressed in Escherichia coli BL21(DE3) assessed as inhibition of GST-tagged HIF-1 alpha/p300 interaction at 5 ug after overnight incubation by pull down assay in hypoxia condition
MDA-MB-231 [13] = test: Induction of apoptosis in human MDA-MB-231 cells assessed as reduction in cell viability at 1 to 10 uM by MTT assay; format: functional, cell-based
MCF7 = test: Induction of apoptosis in human MCF7 cells assessed as reduction in cell viability at 10 uM after 12 to 48 hrs by MTT assay; format: functional, cell-based
MDA-MB-231 [14] = test: Antitumor activity against human MDA-MB-231 cells xenografted in Balb nu/nu mouse assessed as reduction in tumor growth at 2 mg/kg, ip administered every other day for 10 days; format: functional, organism-based; design: dose 2 mg/kg
[15] = target: Tyrosine-protein kinase JAK2 (Homo sapiens) (UniProt O60674); test: Inhibition of JAK2 (unknown origin) phosphorylation at 10 uM after 6 hrs by cell-based Western blotting analysis
Chain of Tyrosine-protein kinase JAK2 (Homo sapiens) (O60674 whole entry): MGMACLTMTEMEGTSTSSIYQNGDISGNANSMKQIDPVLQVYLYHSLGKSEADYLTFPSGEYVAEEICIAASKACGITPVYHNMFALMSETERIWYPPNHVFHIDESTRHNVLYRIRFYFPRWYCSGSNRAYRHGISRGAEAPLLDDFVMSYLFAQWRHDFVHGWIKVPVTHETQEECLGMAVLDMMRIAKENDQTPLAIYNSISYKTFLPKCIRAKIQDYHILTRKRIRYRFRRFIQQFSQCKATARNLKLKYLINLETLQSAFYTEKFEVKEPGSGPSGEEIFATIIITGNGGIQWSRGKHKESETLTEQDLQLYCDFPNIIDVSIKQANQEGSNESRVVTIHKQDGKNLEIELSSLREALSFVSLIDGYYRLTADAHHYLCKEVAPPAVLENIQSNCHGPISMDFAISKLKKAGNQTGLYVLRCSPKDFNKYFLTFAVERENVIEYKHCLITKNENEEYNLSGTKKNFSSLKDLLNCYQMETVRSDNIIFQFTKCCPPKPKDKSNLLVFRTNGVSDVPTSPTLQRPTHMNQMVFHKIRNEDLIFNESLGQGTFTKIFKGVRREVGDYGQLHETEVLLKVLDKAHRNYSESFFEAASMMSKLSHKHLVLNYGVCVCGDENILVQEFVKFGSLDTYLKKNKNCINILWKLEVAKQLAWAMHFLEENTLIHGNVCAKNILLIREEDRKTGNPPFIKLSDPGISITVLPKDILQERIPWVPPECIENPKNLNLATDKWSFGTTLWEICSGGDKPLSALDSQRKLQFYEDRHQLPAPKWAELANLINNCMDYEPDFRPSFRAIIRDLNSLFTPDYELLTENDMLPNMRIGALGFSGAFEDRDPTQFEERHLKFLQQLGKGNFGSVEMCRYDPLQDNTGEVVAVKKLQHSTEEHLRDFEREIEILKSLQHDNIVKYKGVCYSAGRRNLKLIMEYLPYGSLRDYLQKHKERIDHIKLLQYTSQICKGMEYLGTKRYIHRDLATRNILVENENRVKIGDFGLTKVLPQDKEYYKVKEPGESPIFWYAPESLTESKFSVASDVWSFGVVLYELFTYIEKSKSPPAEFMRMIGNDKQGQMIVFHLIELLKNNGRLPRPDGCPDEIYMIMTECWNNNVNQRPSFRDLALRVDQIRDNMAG

[16] = target: Aryl hydrocarbon receptor nuclear translocator (Homo sapiens) (UniProt P27540); test: Inhibition of HIF-1 beta in human PC3 cells after 18 hrs by Western blotting analysis in hypoxia condition; format: cell-based; conditions: PC-3
PANC-1 = test: Reduction of total Stat3 level in human PANC1 cells at 0.5 to 20 uM by Western blotting analysis; format: functional, cell-based
[17] = target: Tyrosine-protein kinase JAK2 (Homo sapiens) (UniProt O60674); test: Inhibition of JAK2 (unknown origin) assessed as total JAK2 level at 10 uM after 6 hrs by cell-based Western blotting analysis

CN(C)CCCN1C(=O)c2ccc3c4ccc5c6c(ccc(c7ccc(c2c37)C1=O)c64)C(=O)N(CCCN(C)C)C5=O
inhibition [1]: inactive
inhibition [2]: inactive
inhibition [3]: Active
inhibition [4]: inactive
inhibition [5]: inactive
Activity (MDA-MB-231 [6]): Active
inhibition [7]: Active
inhibition [8]: inactive
inhibition [9]: Active
inhibition [10]: inactive
Activity (MDA-MB-231 [11]): Active
inhibition [12]: Active
Activity (MDA-MB-231 [13]): Active
Activity (MCF7): Active
Activity (MDA-MB-231 [14]): Active
inhibition [15]: inactive
inhibition [16]: inactive
Activity (PANC-1): Active
inhibition [17]: inactive
